From ChEMBL document CHEMBL1145148, “Discovery of (2S)-N-[(1R)-2-[4-cyclohexyl-4-[[(1,1-dimethylethyl)amino]carbonyl]-1-piperidinyl]-1-[(4-fluorophenyl)methyl]-2-oxoethyl]-4-methyl-2-piperazinecarboxamide (MB243), a potent and selective melanocortin subtype-4 receptor agonist” (Bioorg Med Chem Lett, 2005)
pEC50, pIC50: −log10 of the molar value. Where “and” joins values, the source holds several entries; their conditions need not be identical. Equal entries are not always repeated. One block for each molecule: values may come before it.

Tests used:
[1] = biological target: Melanocortin receptor 3 (Rattus norvegicus) (UniProt P32244); experiment: Concentration of compound at 50% maximum cAMP accumulation at rat melanocortin-3 receptor; format: functional
[2] = biological target: Melanocortin receptor 4 (Rattus norvegicus) (UniProt P70596); experiment: Concentration of compound at 50% maximum cAMP accumulation at rat melanocortin-4 receptor; format: functional
[3] = biological target: T1, Melanocyte-stimulating hormone receptor (Homo sapiens, UniProt Q01726); experiment: Concentration of compound at 50% maximum cAMP accumulation at human melanocortin-1 receptor; format: functional
Target sequence in this assay (Q01726 whole entry, looked up): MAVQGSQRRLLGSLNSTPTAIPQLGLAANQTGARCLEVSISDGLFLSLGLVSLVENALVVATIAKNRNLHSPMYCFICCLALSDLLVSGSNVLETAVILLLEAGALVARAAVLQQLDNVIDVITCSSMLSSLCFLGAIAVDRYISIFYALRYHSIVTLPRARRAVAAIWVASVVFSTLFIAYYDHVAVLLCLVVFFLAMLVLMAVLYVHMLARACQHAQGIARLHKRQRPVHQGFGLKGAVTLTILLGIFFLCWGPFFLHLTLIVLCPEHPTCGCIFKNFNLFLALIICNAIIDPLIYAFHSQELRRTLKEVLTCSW

Melanocortin receptor 3 [4] = biological target: T2, Melanocortin receptor 3 (Homo sapiens, UniProt P41968); experiment: Concentration of compound at 50% maximum cAMP accumulation at human melanocortin-3 receptor; format: functional
Melanocortin receptor 5 [5] = biological target: T3, Melanocortin receptor 5 (Homo sapiens, UniProt P33032); experiment: Concentration of compound at 50% maximum cAMP accumulation at human melanocortin-5 receptor; format: functional
[6] = biological target: Melanocortin receptor 4 (Mus musculus) (UniProt P56450); experiment: Concentration of compound at 50% maximum cAMP accumulation at mouse melanocortin-4 receptor; format: functional
Melanocortin receptor 3 [7] = biological target: T2, Melanocortin receptor 3; experiment: Effective concentration towards human melanocortin-3 receptor mediated cAMP accumulation in CHO cells; format: functional, cell-based, Rattus norvegicus
[8] = Percentage of cAMP accumulation at 10 uM of compound relative toa-MSH was determined; format: functional
[9] = biological target: T1, Melanocyte-stimulating hormone receptor; experiment: Concentration for 50% inhibition of human melanocortin-1 receptor expressed in CHO cells using [125I]-NDP-alpha-MSH as radioligand; format: cell-based
Target sequence in this assay (Q01726 whole entry): as the sequence (Q01726 whole entry, looked up) above

Melanocortin receptor 3 [10] = biological target: T2, Melanocortin receptor 3; experiment: Concentration for 50% inhibition of human melanocortin-3 receptor expressed in CHO cells using [125I]NDP-alpha-MSH as radioligand; format: cell-based
Melanocortin receptor 4 [11] = biological target: T4, Melanocortin receptor 4 (Homo sapiens, UniProt P32245); experiment: Concentration for 50% inhibition of human melanocortin-4 receptor expressed in CHO cells using [125I]NDP-alpha-MSH as radioligand; format: cell-based
Melanocortin receptor 5 [12] = biological target: T3, Melanocortin receptor 5; experiment: Concentration for 50% inhibition of human melanocortin-5 receptor expressed in CHO cells using [125I]NDP-alpha-MSH as radioligand; format: cell-based
[13] = biological target: T1, Melanocyte-stimulating hormone receptor; experiment: Effective concentration towards human melanocortin-1 receptor mediated cAMP accumulation in CHO cells; format: functional, cell-based
Target sequence in this assay (Q01726 whole entry): as the sequence (Q01726 whole entry, looked up) above

Melanocortin receptor 4 [14] = biological target: T4, Melanocortin receptor 4; experiment: Effective concentration towards human melanocortin-4 receptor mediated cAMP accumulation in CHO cells; format: functional, cell-based
Melanocortin receptor 5 [15] = biological target: T3, Melanocortin receptor 5; experiment: Effective concentration towards human melanocortin-5 receptor mediated cAMP accumulation in CHO cells; format: functional, cell-based
Rattus norvegicus = experiment: Percent increase in erectile activity in rats after intravenous administration of 3 mg/kg compound; format: functional
[16] = Half life at 1 mg/kg intravenous administration and 2 mg/kg peroral administration; format: ADME, organism-based; settings: cercopithecidae, in vivo
[17] = Half life at 1 mg/kg intravenous administration and 5 mg/kg peroral administration; format: ADME, organism-based; settings: rat, in vivo
[18] = Clearance at 1 mg/kg intravenous administration and 2 mg/kg peroral administration; format: ADME, organism-based; settings: cercopithecidae, in vivo
[19] = Clearance at 1 mg/kg intravenous administration and 5 mg/kg peroral administration; format: ADME, organism-based; settings: rat, in vivo
[20] = Clearance at 0.5 mg/kg intravenous administration and 2 mg/kg peroral administration; format: ADME, organism-based, Canis lupus familiaris; settings: dog, in vivo
[21] = Half life at 0.5 mg/kg intravenous administration and 2 mg/kg peroral administration; format: ADME, organism-based, Canis lupus familiaris; settings: dog, in vivo
[22] = Vdss at 1 mg/kg intravenous administration and 2 mg/kg peroral administration; format: ADME, organism-based; settings: cercopithecidae, in vivo, read-out: Vdss
[23] = Vdss at 1 mg/kg intravenous administration and 5 mg/kg peroral administration; format: ADME, organism-based; settings: rat, in vivo, read-out: Vdss
[24] = Vdss at 0.5 mg/kg intravenous administration and 2 mg/kg peroral administration; format: ADME, organism-based, Canis lupus familiaris; settings: dog, in vivo, read-out: Vdss
[25] = Maximum time taken by the compound at 1 mg/kg intravenous administration and 2 mg/kg peroral administration; format: ADME, organism-based; settings: cercopithecidae, in vivo, po
[26] = Maximum time taken by the compound at 1 mg/kg intravenous administration and 5 mg/kg peroral administration; format: ADME, organism-based; settings: rat, in vivo, po
[27] = Maximum time taken by the compound at 0.5 mg/kg intravenous administration and 2 mg/kg peroral administration; format: ADME, organism-based, Canis lupus familiaris; settings: dog, in vivo, po
[28] = Percent bioavailability at 1 mg/kg intravenous administration and 2 mg/kg peroral administration; format: ADME, organism-based; settings: cercopithecidae, in vivo, po
[29] = Percent bioavailability at 1 mg/kg intravenous administration and 5 mg/kg peroral administration; format: ADME, organism-based; settings: rat, in vivo, po
[30] = Percent bioavailability at 0.5 mg/kg intravenous administration and 2 mg/kg peroral administration; format: ADME, organism-based, Canis lupus familiaris; settings: dog, in vivo, po

T4 sequence (P32245 whole entry): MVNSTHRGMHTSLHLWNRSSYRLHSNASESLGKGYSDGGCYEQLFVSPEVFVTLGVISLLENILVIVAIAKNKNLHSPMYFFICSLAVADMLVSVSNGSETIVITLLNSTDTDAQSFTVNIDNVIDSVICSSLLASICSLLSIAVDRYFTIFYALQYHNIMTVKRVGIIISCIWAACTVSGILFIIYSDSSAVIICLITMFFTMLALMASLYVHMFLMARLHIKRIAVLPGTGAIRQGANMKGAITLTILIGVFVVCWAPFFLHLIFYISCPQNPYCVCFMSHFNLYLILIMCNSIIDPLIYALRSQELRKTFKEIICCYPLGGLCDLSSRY
T2 sequence (P41968 whole entry): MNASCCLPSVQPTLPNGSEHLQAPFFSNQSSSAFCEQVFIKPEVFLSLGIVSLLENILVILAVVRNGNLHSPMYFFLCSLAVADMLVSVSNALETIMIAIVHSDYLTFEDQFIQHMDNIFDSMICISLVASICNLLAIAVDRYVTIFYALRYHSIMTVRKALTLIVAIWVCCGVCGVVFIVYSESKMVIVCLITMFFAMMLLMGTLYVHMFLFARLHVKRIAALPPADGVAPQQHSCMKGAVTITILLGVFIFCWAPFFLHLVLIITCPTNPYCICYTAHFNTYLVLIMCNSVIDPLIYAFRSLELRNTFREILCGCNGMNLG
T3 sequence (P33032 whole entry): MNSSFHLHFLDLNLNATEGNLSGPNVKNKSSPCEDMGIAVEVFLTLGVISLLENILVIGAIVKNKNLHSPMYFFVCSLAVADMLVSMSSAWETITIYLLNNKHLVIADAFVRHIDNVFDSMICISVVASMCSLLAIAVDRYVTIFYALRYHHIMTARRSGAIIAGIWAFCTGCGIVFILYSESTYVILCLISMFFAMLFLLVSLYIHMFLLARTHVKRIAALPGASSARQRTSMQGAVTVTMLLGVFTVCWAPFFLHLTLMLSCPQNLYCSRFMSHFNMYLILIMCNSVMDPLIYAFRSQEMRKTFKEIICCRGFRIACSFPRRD
Melanocortin receptor 4 (Rattus norvegicus), sequence (P70596 whole entry): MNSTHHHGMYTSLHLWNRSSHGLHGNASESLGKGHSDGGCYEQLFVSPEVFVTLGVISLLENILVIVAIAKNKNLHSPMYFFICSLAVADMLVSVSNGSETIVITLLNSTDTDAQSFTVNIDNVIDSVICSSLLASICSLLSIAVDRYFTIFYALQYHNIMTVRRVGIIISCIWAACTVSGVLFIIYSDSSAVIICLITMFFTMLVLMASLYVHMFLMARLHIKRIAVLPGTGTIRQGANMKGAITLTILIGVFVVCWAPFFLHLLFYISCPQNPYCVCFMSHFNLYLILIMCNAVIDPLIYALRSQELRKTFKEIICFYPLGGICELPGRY
Melanocortin receptor 4 (Mus musculus), sequence (P56450 whole entry): as the sequence (P70596 whole entry) above, with H21Y, S36P, T199S, A239T, P329S, G330S counted along it
Melanocortin receptor 3 (Rattus norvegicus), sequence (P32244 whole entry): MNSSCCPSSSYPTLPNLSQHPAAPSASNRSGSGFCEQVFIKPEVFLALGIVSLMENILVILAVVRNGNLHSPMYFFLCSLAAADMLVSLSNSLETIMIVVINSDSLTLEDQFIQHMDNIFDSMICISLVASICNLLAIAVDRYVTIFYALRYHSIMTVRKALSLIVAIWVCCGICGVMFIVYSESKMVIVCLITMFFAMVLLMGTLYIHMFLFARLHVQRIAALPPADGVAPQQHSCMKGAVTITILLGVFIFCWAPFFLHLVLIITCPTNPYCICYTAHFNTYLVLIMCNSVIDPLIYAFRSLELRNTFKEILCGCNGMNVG

Structure (SMILES): CN1CCN[C@H](C(=O)N[C@H](Cc2ccc(F)cc2)C(=O)N2CCC(C(=O)NC(C)(C)C)(C3CCCCC3)CC2)C1
cAMP accumulation [1]: 21% | cAMP accumulation [2]: 76% | cAMP accumulation [3]: 85% | cAMP accumulation (Melanocortin receptor 3 [4]): 11% | cAMP accumulation (Melanocortin receptor 5 [5]): 32% | cAMP accumulation [6]: 66% | pEC50 (Melanocortin receptor 3 [7]): 6.00 | Activation [8]: 4% and 7% and 11% | pIC50 [9]: 5.77 | pIC50 (Melanocortin receptor 3 [10]): 5.64 and 5.96 and 5.80 | IC50 (Melanocortin receptor 4 [11]): 8 nM and 7 nM and 16 nM (2×) | pIC50 (Melanocortin receptor 5 [12]): 5.62 and 4.89 | pEC50 [13]: 6.46 | EC50 (Melanocortin receptor 4 [14]): 11 nM (2×) and 6 nM and 16 nM | pEC50 (Melanocortin receptor 5 [15]): 5.72 | pEC50 (Melanocortin receptor 5 [15]; cho): 5.72 | Activity (Rattus norvegicus): 21.2% | half-life [16]: 1.3 h | half-life [17]: 1.6 h | clearance [18]: 15.7 mL/min/kg | clearance [19]: 48.7 mL/min/kg | clearance [20]: 5.6 mL/min/kg | half-life [21]: 4.1 h | Vd [22]: 1.2 L/kg | Vd [23]: 5.4 L/kg | Vd [24]: 1.2 L/kg | Tmax [25]: 5 h | Tmax [26]: 1.54 h | Tmax [27]: 0.75 h | bioavailability [28]: 11% | bioavailability [29]: 9% | bioavailability [30]: 17%

Structure (SMILES): CN1CCN[C@@H](C(=O)N[C@H](Cc2ccc(F)cc2)C(=O)N2CCC(C(=O)NC(C)(C)C)(C3CCCCC3)CC2)C1
cAMP accumulation (Melanocortin receptor 3 [4]): 7% | cAMP accumulation (Melanocortin receptor 5 [5]): 39% | pIC50 (Melanocortin receptor 4 [11]): 7.28 | pEC50 (Melanocortin receptor 4 [14]): 7.09 | pEC50 (Melanocortin receptor 5 [15]): 5.57

Structure (SMILES): C[C@H](N)C(=O)N1CCN[C@H](C(=O)N[C@H](Cc2ccc(F)cc2)C(=O)N2CCC(C(=O)NC(C)(C)C)(C3CCCCC3)CC2)C1
cAMP accumulation (Melanocortin receptor 3 [4]): 12% | cAMP accumulation (Melanocortin receptor 5 [5]): 27% | pIC50 (Melanocortin receptor 4 [11]): 7.52 | pEC50 (Melanocortin receptor 4 [14]): 6.57 | pEC50 (Melanocortin receptor 5 [15]): 5.70

Structure (SMILES): CN1CCNC[C@H]1C(=O)N[C@H](Cc1ccc(F)cc1)C(=O)N1CCC(C(=O)NC(C)(C)C)(C2CCCCC2)CC1
cAMP accumulation (Melanocortin receptor 3 [4]): 19% | cAMP accumulation (Melanocortin receptor 5 [5]): 19% | pEC50 (Melanocortin receptor 3 [7]): 5.54 | pIC50 (Melanocortin receptor 4 [11]): 7.06 | pEC50 (Melanocortin receptor 4 [14]): 7.54 | pEC50 (Melanocortin receptor 5 [15]): 5.48

Structure (SMILES): CN1CCN[C@H](C(=O)N[C@@H](Cc2ccc(F)cc2)C(=O)N2CCC(C(=O)NC(C)(C)C)(C3CCCCC3)CC2)C1
cAMP accumulation (Melanocortin receptor 3 [4]): 1% | cAMP accumulation (Melanocortin receptor 5 [5]): 3%

Structure (SMILES): CC(C)(C)NC(=O)C1(C2CCCCC2)CCN(C(=O)[C@@H](Cc2ccc(F)cc2)NC(=O)[C@@H]2CNCCN2C(=O)OC(C)(C)C)CC1
cAMP accumulation (Melanocortin receptor 3 [4]): 10% | cAMP accumulation (Melanocortin receptor 5 [5]): 43% | pIC50 (Melanocortin receptor 4 [11]): 7.74 | pEC50 (Melanocortin receptor 4 [14]): 7.89 | pEC50 (Melanocortin receptor 5 [15]): 5.74

The remaining molecules from weak to strong by pEC50 (Melanocortin receptor 5 [15]), led by results:

cAMP accumulation (Melanocortin receptor 3 [4]): 3% | cAMP accumulation (Melanocortin receptor 5 [5]): 20% | pIC50 (Melanocortin receptor 4 [11]): 7.70 | pEC50 (Melanocortin receptor 4 [14]): 7.28 | pEC50 (Melanocortin receptor 5 [15]): 6.08
Structure (SMILES): CCN1CCN[C@H](C(=O)N[C@H](Cc2ccc(F)cc2)C(=O)N2CCC(C(=O)NC(C)(C)C)(C3CCCCC3)CC2)C1

cAMP accumulation (Melanocortin receptor 3 [4]): 6% | cAMP accumulation (Melanocortin receptor 5 [5]): 19% | pIC50 (Melanocortin receptor 4 [11]): 7.89 | pEC50 (Melanocortin receptor 4 [14]): 7.28 | pEC50 (Melanocortin receptor 5 [15]): 6.29
Structure (SMILES): CC(C)(C)NC(=O)C1(C2CCCCC2)CCN(C(=O)[C@@H](Cc2ccc(F)cc2)NC(=O)[C@@H]2CN(CC(F)F)CCN2)CC1

cAMP accumulation (Melanocortin receptor 3 [4]): 19% | cAMP accumulation (Melanocortin receptor 5 [5]): 22% | pIC50 (Melanocortin receptor 4 [11]): 8.10 | pEC50 (Melanocortin receptor 4 [14]): 7.47 | pEC50 (Melanocortin receptor 5 [15]): 6.47
Structure (SMILES): CC(C)CN1CCN[C@H](C(=O)N[C@H](Cc2ccc(F)cc2)C(=O)N2CCC(C(=O)NC(C)(C)C)(C3CCCCC3)CC2)C1
